The NIST ThermoML archive (doi:10.1021/je300853z)
± gives the expanded uncertainty stated by the source.

What was measured:
[1] = for mass density / viscosity: 101.33 kPa, Liquid; for mass density: Vibrating tube method
[2] = molar heat capacity at constant pressure; details: 101.33 kPa, Liquid, Small sample (50 mg) DSC

**Q.** Which mass density ([1]; 288.15 K) does the source give for `CCCCCCCC[n+]1ccc2ccccc2c1.N#C[S-]` [2-octylisoquinolinium thiocyanate] here?
**A.** 1067.27 ± 2.2 kg/m3

**Q.** And the mass density ([1]; 293.15 K)?
**A.** 1064.44 ± 2.2 kg/m3

**Q.** What about the viscosity ([1]; 298.15 K) of the same molecule?
**A.** 2388 ± 36 mPa·s

**Q.** What about the mass density ([1]; 298.15 K) of the same molecule?
**A.** 1061.69 ± 2.1 kg/m3

**Q.** What about the viscosity ([1]; 303.15 K) of the same molecule?
**A.** 1612.1 ± 24 mPa·s

**Q.** And the mass density ([1]; 303.15 K)?
**A.** 1058.82 ± 2.1 kg/m3

**Q.** And the viscosity ([1]; 308.15 K)?
**A.** 1109.5 ± 17 mPa·s

**Q.** And the mass density ([1]; 308.15 K)?
**A.** 1055.96 ± 2.1 kg/m3

**Q.** And the viscosity ([1]; 313.15 K)?
**A.** 743.87 ± 11 mPa·s

**Q.** And the mass density ([1]; 313.15 K)?
**A.** 1053.11 ± 2.1 kg/m3

**Q.** What about the viscosity ([1]; 318.15 K) of the same molecule?
**A.** 513.78 ± 7.8 mPa·s

**Q.** And the mass density ([1]; 318.15 K)?
**A.** 1050.26 ± 2.1 kg/m3

**Q.** And the viscosity ([1]; 323.15 K)?
**A.** 365.48 ± 5.5 mPa·s

**Q.** What about the mass density ([1]; 323.15 K) of the same molecule?
**A.** 1047.42 ± 2.1 kg/m3

**Q.** What about the viscosity ([1]; 328.15 K) of the same molecule?
**A.** 266.77 ± 4 mPa·s

**Q.** And the mass density ([1]; 328.15 K)?
**A.** 1044.57 ± 2.1 kg/m3

**Q.** What about the viscosity ([1]; 333.15 K) of the same molecule?
**A.** 199.26 ± 3 mPa·s

**Q.** And the mass density ([1]; 333.15 K)?
**A.** 1041.72 ± 2.1 kg/m3

**Q.** What about the viscosity ([1]; 338.15 K) of the same molecule?
**A.** 152.21 ± 2.3 mPa·s

**Q.** And the mass density ([1]; 338.15 K)?
**A.** 1038.94 ± 2 kg/m3

**Q.** And the viscosity ([1]; 343.15 K)?
**A.** 118.51 ± 1.8 mPa·s

**Q.** What about the mass density ([1]; 343.15 K) of the same molecule?
**A.** 1036.2 ± 2 kg/m3

**Q.** What about the viscosity ([1]; 348.15 K) of the same molecule?
**A.** 93.83 ± 1.4 mPa·s

**Q.** What about the mass density ([1]; 348.15 K) of the same molecule?
**A.** 1033.47 ± 2 kg/m3

**Q.** What about the Glass transition temperature ([1]; Glass, DTA) of the same molecule?
**A.** -57.0 ± 3 °C

**Q.** And the “molar heat capacity at constant pressure” value ([2]; 278.15 K)?
**A.** 510 ± 17 J/K/mol

**Q.** And the “molar heat capacity at constant pressure” value ([2]; 283.15 K)?
**A.** 513 ± 17 J/K/mol

**Q.** And the “molar heat capacity at constant pressure” value ([2]; 288.15 K)?
**A.** 516 ± 17 J/K/mol

**Q.** And the “molar heat capacity at constant pressure” value ([2]; 293.15 K)?
**A.** 519 ± 17 J/K/mol

**Q.** And the “molar heat capacity at constant pressure” value ([2]; 298.15 K)?
**A.** 522 ± 17 J/K/mol

**Q.** And the “molar heat capacity at constant pressure” value ([2]; 303.15 K)?
**A.** 525 ± 17 J/K/mol

**Q.** And the “molar heat capacity at constant pressure” value ([2]; 308.15 K)?
**A.** 528 ± 18 J/K/mol

**Q.** And the “molar heat capacity at constant pressure” value ([2]; 313.15 K)?
**A.** 531 ± 18 J/K/mol

**Q.** And the “molar heat capacity at constant pressure” value ([2]; 318.15 K)?
**A.** 533 ± 18 J/K/mol

**Q.** And the “molar heat capacity at constant pressure” value ([2]; 323.15 K)?
**A.** 535 ± 18 J/K/mol

**Q.** And the “molar heat capacity at constant pressure” value ([2]; 328.15 K)?
**A.** 537 ± 18 J/K/mol

**Q.** And the “molar heat capacity at constant pressure” value ([2]; 333.15 K)?
**A.** 538 ± 18 J/K/mol

**Q.** And the “molar heat capacity at constant pressure” value ([2]; 338.15 K)?
**A.** 540 ± 18 J/K/mol

**Q.** What about the “molar heat capacity at constant pressure” value ([2]; 343.15 K) of the same molecule?
**A.** 540 ± 18 J/K/mol
